Laboratory results taken from paper PMC8954214, “Preparation, Identification, Molecular Docking Study and Protective Function on HUVECs of Novel ACE Inhibitory Peptides from Protein Hydrolysate of Skipjack Tuna Muscle” (Marine Drugs, 2022).

Tests used:
ET-1 = details: cited from earlier work; for ET-1 generation: from R. philippinarum
Excerpt: (§1) Among these peptides, ACEi peptides represent a promising alternative to synthetic drugs to control hypertension. For instance, canary seed peptides (CSP) have great potential as anti-hypertensive and anti-obesity agents due to their inhibition activity on ACE and pancreatic lipase, and their non-competitive inhibitory activity was due to their destabilization of the transition state and Zn(II) coordination in ACE [13]. Noncompetitive ... || ET-1 is a known vasoconstriction factor similar to Ang II and is capable of inducing endothelial dysfunction related to atherosclerosis and hypertension.

HUVECs [1] = details: cited from earlier work
Excerpt: Among these peptides, ACEi peptides represent a promising alternative to synthetic drugs to control hypertension. For instance, canary seed peptides (CSP) have great potential as anti-hypertensive and anti-obesity agents due to their inhibition activity on ACE and pancreatic lipase, and their non-competitive inhibitory activity was due to their destabilization of the transition state and Zn(II) coordination in ACE [13]. Noncompetitive ... || NO can antagonize the vascular tone function of angiotensin II by down-regulating the synthesis of ang II type 1 receptor and ACE, which is further involved in regulating the peripheral and central function of the cardiovascular system and exerts vasoprotective effects. […] Therefore, the deficiency of NO will increase the risks of cardiovascular in pathologic situations, and improving endothelial NO production represents reasonable therapeutic strateg ...

systolic blood pressure = details: single blood pressure test; cited from earlier work
Excerpt: as §1, with “...” for “... || ET-1 is a known vasoconstriction factor similar to Ang II and is capable of inducing endothelial dysfunction related to atherosclerosis and hypertension.”

ACE = molecular target: T1, ACE (Oryctolagus cuniculus, UniProt P12822); details: from Ruditapes philippinarum; cited from earlier work
T1 construct: purchased Sigma-Aldrich (Shanghai) Trading Co., Ltd. A6778
T1 sequence (P12822 34-1310): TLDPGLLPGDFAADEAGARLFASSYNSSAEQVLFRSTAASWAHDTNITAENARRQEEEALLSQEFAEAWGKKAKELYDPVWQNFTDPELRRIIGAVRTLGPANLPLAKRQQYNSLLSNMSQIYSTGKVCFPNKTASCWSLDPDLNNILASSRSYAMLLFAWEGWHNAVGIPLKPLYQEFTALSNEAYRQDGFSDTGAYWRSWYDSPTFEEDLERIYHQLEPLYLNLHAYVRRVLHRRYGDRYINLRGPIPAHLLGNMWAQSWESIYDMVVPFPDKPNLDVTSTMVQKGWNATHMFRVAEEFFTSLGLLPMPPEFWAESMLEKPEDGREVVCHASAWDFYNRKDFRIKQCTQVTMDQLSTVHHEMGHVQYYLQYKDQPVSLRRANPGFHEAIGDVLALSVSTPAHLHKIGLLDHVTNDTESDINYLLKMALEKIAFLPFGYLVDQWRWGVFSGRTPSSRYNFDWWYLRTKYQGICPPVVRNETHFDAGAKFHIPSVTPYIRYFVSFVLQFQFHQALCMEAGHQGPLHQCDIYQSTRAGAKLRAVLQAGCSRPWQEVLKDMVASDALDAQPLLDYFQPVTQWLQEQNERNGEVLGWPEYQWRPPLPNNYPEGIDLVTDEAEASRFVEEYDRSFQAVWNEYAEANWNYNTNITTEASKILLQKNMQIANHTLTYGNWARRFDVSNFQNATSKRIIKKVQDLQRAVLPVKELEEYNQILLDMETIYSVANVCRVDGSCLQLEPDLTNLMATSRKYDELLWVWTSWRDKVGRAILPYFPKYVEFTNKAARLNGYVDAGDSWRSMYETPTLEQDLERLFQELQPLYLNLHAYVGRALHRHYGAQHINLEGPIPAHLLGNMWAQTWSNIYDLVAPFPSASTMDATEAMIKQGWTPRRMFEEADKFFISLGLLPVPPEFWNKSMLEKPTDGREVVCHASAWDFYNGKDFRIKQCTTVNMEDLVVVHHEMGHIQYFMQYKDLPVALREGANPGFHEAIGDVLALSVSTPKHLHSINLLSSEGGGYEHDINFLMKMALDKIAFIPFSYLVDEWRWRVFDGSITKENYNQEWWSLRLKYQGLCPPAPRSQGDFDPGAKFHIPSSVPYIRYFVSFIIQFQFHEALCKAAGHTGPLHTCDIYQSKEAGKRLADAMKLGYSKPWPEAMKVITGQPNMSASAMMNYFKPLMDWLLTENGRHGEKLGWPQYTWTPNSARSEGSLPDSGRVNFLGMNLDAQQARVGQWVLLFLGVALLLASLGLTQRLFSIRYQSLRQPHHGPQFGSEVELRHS
Excerpt: Among these peptides, ACEi peptides represent a promising alternative to synthetic drugs to control hypertension. For instance, canary seed peptides (CSP) have great potential as anti-hypertensive and anti-obesity agents due to their inhibition activity on ACE and pancreatic lipase, and their non-competitive inhibitory activity was due to their destabilization of the transition state and Zn(II) coordination in ACE [13]. […] Auwal et al. illustrated that branched aliphatic or dicarboxylic amino acids (Val, Ala, Ile, and Leu) at the N-terminus could strengthen ACEi ability of peptides. Then, Val residue at the N-terminus of TMAP2 could improve its ACEi ability. […] Therefore, Ser residue, especially its hydroxyl group, should play a vital effect in the ACEi capability of ...

eNOS = details: via Akt pathway; cited from earlier work
Excerpt: as §1, with “...” for “... || ET-1 is a known vasoconstriction factor similar to Ang II and is capable of inducing endothelial dysfunction related to atherosclerosis and hypertension.”

HUVECs [2] = test: NO production in HUVECs; type: cell-based, human; details: 24 h
HUVECs [3] = test: HUVEC viability, MTT assay; type: cell-based, human; details: 24 h, 100–400 μM
Experimental: After thawing, HUVECs were maintained in cultured flasks and cultured to confluence in DMEM containing 1% Penicillin-Streptomycin liquid, supplemented with 10% FBS. HUVECs received the culturing process at 37°C in a humidified 5% CO2 atmosphere.
The cell viability of TMAP1 and TMAP2 on HUVECs were assessed using the MTT assay on manufacturer’s instructions. In brief, cells were incubated in 96-well plates at density of 0.8 × 10^4 cells per well with 180 μL completed DMEM. Following a confluency of 50–60% in the 96-well plates, the cells were treated with 20 μL peptides under designed concentrations (100, 200, and 400 μM) and further cultured for 24 h at 37 °C. Subsequently, the cells were added to 20 μL MTT solution (5 mg/mL) and incubated for 4 h. Finally, DMSO was added into each well, and the absorbance (A) at 490 nm was determined. The cell viability was calculated as: Cell viability (%) = (Aexperiment group/Acontrol group) × 100(2)

HUVECs [4] = test: ET-1 secretion of HUVECs; type: cell-based, human; details: 24 h
Excerpt: Skipjack tuna (K. pelamis) muscle was provided by Ningbo Today Food Co., Ltd (China). Sephadex G-25 resins and NO assay kit (Nitrate reductase approach, A012-1) were purchased from Nanjing Jiancheng Bioengineering Institute (China). ET-1 ELISA Kit (HM10108) was purchased from Shanghai Qiaodu Biotechnology Co. Ltd. (China).Trypsase (≥20,000 U/g), pepsase (≥500,000 U/g), papain (≥400,000 U/g), ACE (A6778) and N-[3-(2-Furyl) acryloyl]-Phe-Gly-Gly (FAPGG, F713) were purchased from Sigma-Aldrich (Shanghai) Trading Co., Ltd. (China). […] ACEi Peptides of (TMAP1-TMAP6) with purity higher than 98% were synthesized in Shanghai Apeptide Co. Ltd. (China).
The NO and ET-1 contents of HUVECs were determined after a 24 h treatment of ACEi peptides. […] NO and ET-1 production in treated cells were measured by employing human NO and ET-1 assay kit as manufactures’ protocol, separately.

GRVSNCAA [ACEi peptide from Ruditapes philippinarum]
ET-1 production (ET-1): reduced ET-1 production | ET-1 generation (ET-1): significantly lessening ET-1 generation | NO production of HUVEC (HUVECs [1]): increasing the NO production | NO secretion (HUVECs [1]): promote NO secretion | systolic blood pressure (systolic blood pressure): lower systolic blood pressure | IC50 (ACE): 57.9 µM | mode of ACE inhibition (ACE): Noncompetitive

KYIPIQ [ACEi peptide found in yak milk casein]
NO synthesis in HUVECs (HUVECs [1]; via Akt pathway): promote NO synthesis | expression of phosphorylated eNOS in HUVECs (eNOS): promote NO synthesis and the expression of phosphorylated endothelial NO synthase (eNOS) in HUVECs

TYLPVH [ACEi peptide from Ruditapes philippinarum]
ET-1 production (ET-1): reduced ET-1 production | ET-1 generation (ET-1): significantly lessening ET-1 generation | NO production of HUVEC (HUVECs [1]): increasing the NO production | NO secretion (HUVECs [1]): promote NO secretion | systolic blood pressure (systolic blood pressure): lower systolic blood pressure | IC50 (ACE): 1.37 µM | mode of ACE inhibition (ACE): Noncompetitive

H-VDRYF-OH [TMAP2, Val-Asp-Arg-Tyr-Phe]
reversal of NE-reduced NO content (HUVECs [2]; 200 μM peptide with NE (0.5 μM), p < 0.001 vs NE): partially offset | NO level (HUVECs [2]; 400 μM, control 34.41 ± 1.27, p < 0.001): 51.88 ± 2.16 μmol/gprot | NO level vs control group (HUVECs [2]; 100, 200 and 400 μM, p < 0.001): significantly increased | cell toxicity (HUVECs [3]): did not induce significant cell toxicity | ET-1 secretion with NE (HUVECs [4]; 200 μM peptide with NE (0.5 μM), NE alone 140.23 ± 5.81, p < 0.01): 111.78 ± 3.06 pg/mL | ET-1 secretion (HUVECs [4]; 400 μM, control 118.68 ± 0.53): 92.09 ± 4.58 pg/mL | ET-1 secretion vs control group (HUVECs [4]; tested concentrations (100–400 μM), p < 0.001 or p < 0.01): decreased
